Assay results from patent US8183394B2, “Protease inhibitor precursor synthesis” (priority 2005, dated 2012).

Tests used:
Type in all cases: cell-based
[1] = test system: HIV mutant strain Mutant 3; test: cellular assay using MT4-LTR-EGFP cells for anti-viral activity, mutant 3; details: Human immunodeficiency virus 1, 72 h, read-out: pEC50 Mutant 3 (converted)
Method: (§1) The compounds were tested in a cellular assay using the MT4-LTR-EGFP cells for anti-viral activity.
(§2) The cellular assay was performed according to the following procedure. HIV- or mock-infected MT4-LTR-EGFP cells were incubated for three days in the presence of various concentrations of the compounds mentioned above. Upon infection, the viral tat protein activates the GFP reporter. At the end of the incubation period, the GFP signal was measured. In the virus control samples (in the absence of any inhibitor) the maximal fluorescent signal was obtained. The inhibitory activity of the compound was monitored on the virus-infected cells and EC50 values were calculated. These values represent the amount of the compound required to protect 50% of the cells from virus infection. The data presented in table 1 contain the pEC50 values, being the negative logarithm of the EC50-values.

[2] = test system: HIV mutant strain Mutant 2; test: cellular assay using MT4-LTR-EGFP cells for anti-viral activity, mutant 2; details: Human immunodeficiency virus 1, 72 h, read-out: pEC50 Mutant 2 (converted)
Method: as §1, §2

[3] = test system: HIV mutant strain Mutant 1; test: cellular assay using MT4-LTR-EGFP cells for anti-viral activity, mutant 1; details: Human immunodeficiency virus 1, 72 h, read-out: pEC50 Mutant 1 (converted)
Method: as §1, §2

[4] = test system: HIV mutant strain Mutant 4; test: cellular assay using MT4-LTR-EGFP cells for anti-viral activity, mutant 4; details: Human immunodeficiency virus 1, 72 h, read-out: pEC50 Mutant 4 (converted)
Method: as §1, §2

[5] = test system: wild type laboratory HIV strain (WT IIIB-2-001); test: microbe, parasite or virus in culture; details: Human immunodeficiency virus 1, 72 h, MT4-LTR-EGFP cells, three days incubation, GFP signal
Method: as §1
as §2, with “In the virus control samples (in the absence of any inhibitor) the maximal fluorescent signal was obtained.” left out

Row | SMILES | EC50 [1] | EC50 [2] | EC50 [3] | EC50 [4] | EC50 [5]
1 | CC(C)CN(C[C@@H](O)[C@H](Cc1ccccc1)NC(=O)O[C@H]1CO[C@H]2OC[C@H](OCc3ccccc3)[C@H]21)S(=O)(=O)c1ccc(N)cc1 [Compound 13, {3-[(4-amino-benzenesulfonyl)-isobutyl-amino]-1-benzyl-2-hydroxy-propyl}-carbamic acid 4-benzyloxy-hexahydro-furo[2,3-b]furan-3-yl ester] | 126 nM | 316 nM | 10 nM | 2000 nM | 1.58 nM
2 | CC(C)CN(C[C@@H](O)[C@H](Cc1ccccc1)NC(=O)O[C@H]1CO[C@H]2OCC[C@H]21)S(=O)(=O)c1ccc(N)cc1 [TMC 114, (3R,3aS,6aR)-hexahydrofuro[2,3-b]furan-3-yl N-[(1S,2R)-1-benzyl-2-hydroxy-3-(N1-isobutylsulfanilamido)propyl]carbamate, reference compound] | – | 794 nM | 8.13 nM | 3720 nM | –
